Experimental data from the supplement of paper PMC10949913.

How the values were obtained:
Settings in all cases: 48 h
CU-ACC1 [1] = assay: AC50 viability; higher = less potent
Outline: (§1)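 Three adrenocortical carcinoma cell lines were plated in 1,536-well plates at 500–1,000 cells/well in 5 µL medium, and 23 nL of each library compound was added at 11 concentrations. After 48 h, CellTiter-Glo was applied for 15 minutes at room temperature before luminescence was read. Each plate's signals were normalised to vehicle and empty-well controls. AC50 and area under the curve were taken from fitted concentration-response curves, with only inhibitory or non-responding curve classes retained.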

NCI-H295R [2] = assay: AC50 viability; higher = less potent
Outline: as §1

CU-ACC1 [3] = assay: area under concentration-response curve (viability) (AUC (a.u.)); higher = less active
Outline: as §1

NCI-H295R [4] = assay: as above
Outline: as §1

CU-ACC2 = assay: as above
Outline: as §1

Row | Structure (SMILES) | AC50 viability (CU-ACC1 [1]) | AC50 viability (NCI-H295R [2]) | area under concentration-response curve (CU-ACC1 [3]) | area under concentration-response curve (NCI-H295R [4]) | area under concentration-response curve (CU-ACC2)
1 | CCCOc1ccc(CCc2nc3cc(-c4c(C)noc4C)ccc3n2CCN2CCOCC2)cc1 | 14.8 µM | 20.9 µM | 482 | 479 | 567
2 | C[C@@H](Oc1ccc2[nH]nc(/C=C/c3cnn(CCO)c3)c2c1)c1c(Cl)cncc1Cl | 16.6 µM | 14.8 µM | 481 | 473 | 519
3 | Cc1ccc(NC(=O)c2ccc(CN3CCNCC3)cc2)cc1Nc1nccc(-c2cccnc2)n1 | 6.61 µM | 26.3 µM | 496 | 518 | 600
4 | CC(=O)Nc1ccc(C(=O)Nc2ccccc2N)cc1 | 7.42 µM | 18.6 µM | 413 | 445 | 408
5 | CC1=C(C)C\2=C(S1)[N]3C(=NN=C3[C@H](CC(=O)NC4=CC=C(OCCOCCOCCOCCNC5=CC=CC6=C5C(=O)N(C7CCC(=O)NC7=O)C6=O)C=C4)\N=C2C8=CC=C(Cl)C=C8)C (stereo not given in full) | 0.417 µM | 1.86 µM | 443 | 457 | 484
6 | NC1=NC=C(C=C1)C2=CC=C3N=CC\4=C(N(C(=O)\C=C4)C5=CC(=CC=C5)C(F)(F)F)C3=C2 | 0.235 µM | 0.0833 µM | 314 | 294 | 387
7 | N=C(N)c1ccc(OCCCCCOc2ccc(C(=N)N)cc2)cc1 | 13.2 µM | 14.8 µM | 437 | 453 | 561
8 | ONC(=O)C1=CC=C(C=C1)C/2=N/C3=CC=CC=C3OC4=C2C=CC=C4 | 16.6 µM | 16.6 µM | 362 | 557 | 507
9 | COC1(c2sc3c(N4CCOCC4)nc(-c4cnc(N)nc4)nc3c2C)COC1 | 0.525 µM | 0.372 µM | 287 | 322 | 374
10 | Cc1cccc(-c2[nH]c(C(C)(C)C)nc2-c2ccc3c(c2)OCO3)n1 | 5.25 µM | 11.8 µM | 426 | 481 | 595
11 | CC(C)(O)C[S+](=O)([O-])Nc1ccc2c(c1)CCN(C(=O)COc1cccnc1)C2 | 0.295 µM | 1.05 µM | 334 | 483 | 390
12 | O=[S+]([O-])(Nc1ccc(-c2cccnc2)c2cccnc12)c1cccc(C(F)(F)F)c1 | 4.68 µM | 4.17 µM | 456 | 486 | 595
13 | COc1ccc(CCN(C)CCCC(C#N)(c2ccc(OC)c(OC)c2)C(C)C)cc1OC (stereo not given) | 29.5 µM | 23.5 µM | 397 | 397 | 490
14 | CNC(=O)c1cc(Oc2ccc(NC(=O)Nc3ccc(Cl)c(C(F)(F)F)c3)c(F)c2)ccn1 | 37.2 µM | 20.9 µM | 436 | 545 | 596
15 | CC[C@@H](C)Nc1cc(C(=O)NC2CC3CCC(C2)N3c2ccc(C(=O)C3CC3)cn2)c(C)cc1C(N)=O (stereo not given in full) | 1.32 µM | 0.934 µM | 346 | 382 | 436
16 | O=C(Nc1cccnc1)N1CCC(Cc2cccc(Oc3ccc(C(F)(F)F)cn3)c2)CC1 | 5.25 µM | 18.6 µM | 406 | 500 | 559
17 | Cc1cnc(NC(=O)Nc2cc(Br)c(C)cc2OC[C@@H]2CNCCO2)cn1 | 6.61 µM | 4.68 µM | 486 | 524 | 613
18 | CC(C)n1nc(-c2ccc3oc(N)nc3c2)c2c(N)ncnc21 | 0.0372 µM | 0.166 µM | 338 | 404 | 455
19 | CN1CCN(c2ccc3nc(-c4cc(C(C)(C)C)c(OCCCC(=O)NCCCN=[N+]=[N-])c(C(C)(C)C)c4)[nH]c3c2)CC1 | 7.42 µM | 7.42 µM | 462 | 508 | 566
20 | COc1c(N2C[C@@H]3CCCN[C@@H]3C2)c(F)cc2c(=O)c(C(=O)O)cn(C3CC3)c12.Cl.O | 0.525 µM | 0.118 µM | 400 | 399 | 484
21 | O=C(NCCCNC(=O)c1cccnc1O)c1cc(-c2ccccc2)on1 | 20.9 µM | 18.6 µM | 481 | 443 | 574

Row | Structure (SMILES) | AC50 viability (CU-ACC1 [1]) | AC50 viability (NCI-H295R [2]) | area under concentration-response curve (CU-ACC1 [3]) | area under concentration-response curve (NCI-H295R [4]) | area under concentration-response curve (CU-ACC2)
22 | Nc1n[n+]([O-])c2ccccc2[n+]1[O-] | 29.5 µM | 20.9 µM | 474 | 529 | 617
23 | Cc1cc(Nc2ncnc3ccc(-c4ccc(CNCC[S+](C)(=O)[O-])o4)cc23)ccc1Oc1ccn2ncnc2c1 | 23.5 µM | 8.33 µM | 386 | 392 | 355
24 | COC(=O)Nc1ccc(-c2nc(N3CCOCC3)c3cnn(C4CCN(C(=O)OC)CC4)c3n2)cc1 | 2.95 µM | 2.95 µM | 399 | 485 | 573
25 | OC(c1cc(C(F)(F)F)nc2c(C(F)(F)F)cccc12)C1CCCCN1 (stereo not given) | 23.5 µM | 20.9 µM | 501 | 527 | 619
26 | O=C1Nc2ccc(Cl)cc2[C@@](C#CC2CC2)(C(F)(F)F)O1 | 20.9 µM | 20.9 µM | 490 | 468 | 589
27 | CC/1=C/C(=O)N(O)/C(=C1)C2CCCCC2 | 10.5 µM | 7.42 µM | 505 | 528 | 570
28 | CCc1ccc(C(=O)Nc2cc(CN3CCN(C)CC3)cc(C(F)(F)F)c2)cc1C#Cc1cnc2ccnn2c1 | 7.42 µM | 8.33 µM | 453 | 431 | 559
29 | CC1(C)OCCn2c1nc1c(N3CCOCC3)nc(-c3cnc(N)nc3)nc12 | 1.18 µM | 1.86 µM | 395 | 430 | 500
30 | Cn1c(=O)n(-c2ccc(C(C)(C)C#N)cc2)c2c3cc(-c4cnc5ccccc5c4)ccc3ncc21 | 0.108 µM | 0.171 µM | 471 | 510 | 623
31 | N#Cc1ccc(-c2c(-c3nnc[nH]3)sc(N3CCOCC3)c2C#N)c(F)c1 | 7.42 µM | 4.68 µM | 465 | 478 | 568
32 | CC(=O)Nc1cc(Oc2ccc3c(nc(Nc4ccc(F)cc4F)n3C)c2C)ccn1 | 18.6 µM | 11.8 µM | 484 | 482 | 544
33 | Cc1ccc([S+](=O)([O-])Cc2nc(-c3ccc(C(=O)NCc4cccnc4)cc3)oc2C)cc1 | 0.0742 µM | 0.263 µM | 290 | 379 | 402
34 | O=C(/C=C\n1cnc(-c2cc(C(F)(F)F)cc(C(F)(F)F)c2)n1)N1CC(F)(F)C1 | 1.32 µM | 0.59 µM | 448 | 456 | 467
35 | COc1cc(OC)cc(N2CCN(C(=O)Nc3nc4cc(F)ccc4nc3OC)CC2)c1 | 23.5 µM | 16.6 µM | 503 | 454 | 556
36 | C/C(=N\Nc1nnc2c(n1)[nH]c1c(C)cccc12)c1ccccn1 | 2.35 µM | 9.34 µM | 403 | 415 | 533
37 | O=C(CCCCCCC(=O)Nc1cccnc1)NO | 9.34 µM | 13.2 µM | 489 | 533 | 589
38 | Fc1ccc(-c2csc3ncnc(NCc4ccc5c(c4)OCO5)c23)cc1 | 3.32 µM | 20.9 µM | 390 | 427 | 532
39 | O=C1NC(=O)[C@@H](c2c[nH]c3ccccc23)[C@H]1c1cn2c3c(cccc13)CCC2 | 20.9 µM | 0.59 µM | 494 | 504 | 611
40 | COc1cc(OC2CCN(C)CC2)ccc1Nc1ncc2c(n1)n(C1CCCC1)c(=O)n2C | 26.3 µM | 23.5 µM | 447 | 528 | 619
41 | C[S+](=O)([O-])N1CCc2c(-c3cnc(N)nc3)nc(N3CCOCC3)nc21 | 1.18 µM | 0.417 µM | 403 | 389 | 345
42 | COc1ccc(C[C@@H](C)[C@@H](C)Cc2ccc(OC)c(OC)c2)cc1OC | 4.68 µM | 20.9 µM | 452 | 480 | 536

Row | Structure (SMILES) | AC50 viability (CU-ACC1 [1]) | AC50 viability (NCI-H295R [2]) | area under concentration-response curve (CU-ACC1 [3]) | area under concentration-response curve (NCI-H295R [4]) | area under concentration-response curve (CU-ACC2)
43 | CCc1cncnc1N1CCN(Cc2nc3cc(C(F)(F)F)ccc3[nH]2)CC1 | 20.9 µM | 20.9 µM | 438 | 502 | 590
44 | COC1=C(OCCCN2CCOCC2)C=CC\3=C1/N=C(/NC(=O)C4=CN=C(N)N=C4)N5CC/N=C35 | 0.0382 µM | 0.108 µM | 431 | 452 | 542
45 | C[C@H]1[C@H](O)O[C@@H]2O[C@@]3(C)CC[C@H]4[C@H](C)CC[C@@H]1[C@@]24OO3 | 6.61 µM | 20.9 µM | 494 | 549 | 604
46 | CNC(=O)Nc1ccc(-c2nc(N3CC4CCC(C3)O4)c3cnn(C4CCC5(CC4)OCCO5)c3n2)cc1 | 0.148 µM | 1.05 µM | 404 | 455 | 520
47 | NC(=O)c1ccccc1Nc1ccnc(Nc2cccc(O)c2)n1 | 20.9 µM | 2.63 µM | 465 | 462 | 553
48 | CC(C)(C)NC(=O)c1cncn1C1CCN(c2ccc(-c3nnc(C(F)(F)F)o3)cn2)CC1 | 1.66 µM | 7.42 µM | 381 | 475 | 539
49 | Cc1cccc(CN2CCN(C(c3ccccc3)c3ccc(Cl)cc3)CC2)c1 (stereo not given) | 13.2 µM | 16.6 µM | 422 | 495 | 534
50 | Cn1cc(/C=C/C(=O)c2cccc(F)c2)cc1/C=C/C(=O)NO | 5.9 µM | 8.33 µM | 428 | 439 | 513
51 | NC(=O)c1cccc2nc(-c3ccc([C@H]4CCCN4)cc3F)[nH]c12 | 8.33 µM | 7.42 µM | 453 | 464 | 576
52 | FC(F)(F)c1ccc(C/N=c2\ccc(Cc3c[nH]c4ncccc34)c[nH]2)cc1 | 16.6 µM | 11.8 µM | 511 | 541 | 597
53 | CCN1C(=O)C\N=C/2N\C=C(/N=C12)C3=C(C)N=C(C=C3)C4=NN=C[NH]4 | 10.5 µM | 13.2 µM | 404 | 458 | 489
54 | C[C@H](NC(=O)c1sccc1OCc1ccc(Cl)cc1)c1ccccc1 | 10.5 µM | 20.9 µM | 456 | 504 | 571
55 | Cc1nc(-c2cn3c(n2)-c2ccc(-c4cnn(C(C)(C)C(N)=O)c4)cc2OCC3)n(C(C)C)n1 | 0.132 µM | 0.934 µM | 414 | 458 | 528
56 | CCN(CCO)CCCOc1ccc2c(Nc3cc(CC(=O)Nc4cccc(F)c4)[nH]n3)ncnc2c1 | 23.5 µM | 16.6 µM | 390 | 483 | 569
57 | CCNC(=O)C[C@@H]1\N=C(C2=CC=C(Cl)C=C2)/C3=C(C=CC(=C3)OC)[N]4C(=NN=C14)C | 13.2 µM | 8.33 µM | 423 | 457 | 500
58 | COc1cc(OC)cc(N(CCNC(C)C)c2ccc3ncc(-c4cnn(C)c4)nc3c2)c1 | 23.5 µM | 18.6 µM | 499 | 526 | 603
59 | NC(=O)c1ccc2[nH]c(-c3ccc(Oc4ccc(Cl)cc4)cc3)nc2c1 | 33.2 µM | 26.3 µM | 450 | 507 | 573
60 | Cc1cnc(Nc2ccc(N3CCN(C)CC3)cc2)nc1Nc1cccc([S+](=O)([O-])NC(C)(C)C)c1 | 14.8 µM | 9.34 µM | 466 | 421 | 529
61 | COc1cc(/C=C/C(=O)CC(=O)/C=C/c2ccc(O)c(OC)c2)ccc1O | 23.5 µM | 26.3 µM | 548 | 545 | 591
